Literature values, collected in PMC8036510, “The Inhibitory Effects of Plant Derivate Polyphenols on the Main Protease of SARS Coronavirus 2 and Their Structure–Activity Relationship” (Molecules, 2021).
Converted amounts (≈) assume the structure as drawn.

Columns and labels:
M^pro [1] = test system: M^pro; design: method as in PMID 33022015; conditions: substrate MCA-AVLQSGFR-K(Dnp)-K-NH2
M^pro [2] = test system: M^pro; design: method as in PMID 32963564; conditions: 37 °C for 5 h, same substrate

Row | SMILES | IC50 (M^pro [1]) | IC50 on M^pro (M^pro [2])
1 | O=C(OC[C@H]1O[C@@H](OC(=O)c2cc(O)c(O)c(OC(=O)c3cc(O)c(O)c(O)c3)c2)[C@H](OC(=O)c2cc(O)c(O)c(OC(=O)c3cc(O)c(O)c(O)c3)c2)[C@@H](OC(=O)c2cc(O)c(O)c(OC(=O)c3cc(O)c(O)c(O)c3)c2)[C@@H]1OC(=O)c1cc(O)c(O)c(OC(=O)c2cc(O)c(O)c(O)c2)c1)c1cc(O)c(O)c(OC(=O)c2cc(O)c(O)c(O)c2)c1 [Tannic acid] | 2.1 µM | –
2 | O=C(O[C@@H]1Cc2c(O)cc(O)cc2O[C@@H]1c1cc(O)c(O)c(O)c1)c1cc(O)c(O)c(O)c1 [Epigallocatechin gallate (EGCG), Epigallocatechin gallate] | – | 7.6 µg/mL (≈ 16.6 µM)
